Reference: US20100137144A1, “METHOD AND MEANS FOR DETECTING AND/OR QUANTIFYING HIERARCHICAL MOLECULAR CHANGE OF A CELL IN RESPONSE TO AN EXTERNAL STIMULUS” (Eppendorf Array Technologies S.A., priority 2005, published 2010)
“Also recorded” adds a separate entry of the source.

Columns and labels:
[1] = tested on: AP1 (c-Jun), STAT1, Elk-1, p53, c-Myc, ATF2, NFATc1 and MEF2 in MCF7 cells; assay: TF Chip MAPK microarray: activated transcription factors in stimulated MCF7 cells; assay type: cell-based, human
MCF7 cells = assay: DualChip human breast cancer microarray: gene expression in stimulated MCF7 cells; assay type: cell-based; conditions: 24 h; for Number of genes whose expression level is modified: out of 210
[2] = tested on: AP1 (c-Jun), STAT1, Elk-1, p53, c-Myc, ATF2, NFATc1 and MEF2 in U937 cells; assay: TF Chip MAPK microarray: activated transcription factors in stimulated U937 cells; assay type: cell-based, human; conditions: 1000 U/ml
Description: They are stimulated at 10.10^6 cells/75 cm^2 flask with IFNγ (1000 U/ml) for 15 min and 24 h or left untreated.
The activation of transcription factors is monitored on microarrays using the TF Chip MAPK kit from Eppendorf (Germany). The arrays contain double stranded DNA molecules as capture probes for the TF binding. The TF Chip MAPK allows the assay of AP1 (c-Jun), STAT1, Elk-1, p53, c-Myc, ATF2, NFATc1 and MEF2.
A blocking step is performed in a Blocking Solution (TF Chip MAPK kit, Eppendorf, Germany) for 1 h at RT, followed by a washing step using the Washing Buffer A (TF Chip MAPK kit, Eppendorf, Germany). The nuclear extracts are prepared as described in WO 01/73115. They are diluted in the Sample Dilution Solution and Binding Solution (TF Chip MAPK kit, Eppendorf, Germany) and contacted with the arrays. Incubation is performed for one hour at room temperature and under agitation at 600 rpm. Samples are removed and microarrays are washed 3 times.
A mix of primary antibodies (Primary Antibody Cocktail; TF Chip MAPK kit, Eppendorf, Germany), each specifically recognizing the activated form of a transcription factor to be detected and diluted in the Primary Antibody Solution (TF Chip MAPK kit, Eppendorf, Germany), is contacted with the microarrays for 1 h at RT, followed by 3 washing steps. Each microarray is then contacted with Cy3-labeled secondary antibodies under indirect light for 45 min at RT, followed by washing.
Hybridization chambers are removed, and slides are rinsed with Washing Buffer B (TF Chip MAPK kit, Eppendorf, Germany) and dried. A fluorescence detection of signals is performed by scanning slides using a laser confocal scanner “ScanArray” (Packard, USA) at a resolution of 10 μm. Signals are analyzed using the TF Chip MAPK Data analysis software.
The experiment was performed as described in example 1 with the cells being stimulated for 15 min and 24 h with IFNγ or IFNα at the same concentration (1000 U/ml).
The assays were performed on the TF Chip MAPK kit and on the DualChip® human RNAi side effect (Eppendorf, Germany) as in example 1. Table 2 presents the ratios for the genes whose values were found quantitative as explained in example 1. However, we investigated further the genes which were found positive for the IFNα response. For these genes, we incorporated into the table the values for the genes determined as quantitative for IFNγ but also the values for two genes, SERPINB2 and IFIT2, which were found qualitative, and the values for 4 other genes for which the ratios were significant when a confidence interval of 90% rather than the normal 95% is considered. These values are presented for sake of completing the information on the comparison between the two treatments and are marked with an asterisk.

U937 cells = assay: DualChip human RNAi side effect microarray: gene expression in stimulated U937 cells; assay type: cell-based; conditions: for Number of genes exclusively regulated by this interferon: from 89 significant genes
Description: The DualChip® human RNAi side effect (Eppendorf, Germany) was used for assay of the changes in the gene expression.
The microarray contains, in triplicates, capture probes to analyze the expression of 260 human genes. In order to evaluate the entire experiment, several positive and negative controls (for hybridization and detection) as well as special capture probes for normalization are included. The DualChip® consists of two microarrays on one slide that has already been framed with a hybridization frame.
The instructions provided by the supplier were followed for the hybridization and the analysis of the results.

## C[C@]12CC[C@@H]3c4ccc(O)cc4CC[C@H]3[C@@H]1CC[C@@H]2O [β-Estradiol, β-estradiol]
[1]; MCF7 cells, 1 μM
  Activation state of c-Jun, ATF2, Elk-1 and STAT1: did not highlight any modification in the activation state
[1]; MCF7 cells, 1 μM, 24 h, cells confluent
  Activation of c-Myc: reduced
[1]; MCF7 cells, 1 μM, 24 h, cells confluent, possibly not specific to the treatment
  Activation of p53: triggered
[1]; sub-confluent MCF7 cells, 1 μM, 4 h
  Activation of c-Myc: fast activation
MCF7 cells; 1 μM
  Number of genes whose expression level is modified: 50 genes

## IFNα
[2]; 15 min, vs unstimulated cells
  Activation of transcription factor STAT1: the only TF showing a specific signal in the treated cells
U937 cells; 24 h, 1000 U/ml
  Number of genes exclusively regulated by this interferon: 6 genes

## IFNγ: interferon γ, used at 1000 U/ml as stimulus of U937 cells
[2]
  Activation of transcription factor MEF2: activated in IFNγ stimulated and non stimulated conditions
[2]; 15 min, vs unstimulated cells
  Activation of transcription factor STAT1: specifically activated; also recorded: fast activation; also recorded: the only TF showing a specific signal in the treated cells
[2]; 24 h
  Activation of transcription factor STAT1: disappears after 24 h
[2]; vs unstimulated cells
  Activation of the 7 other transcription factors (AP1 (c-Jun), Elk-1, p53, c-Myc, ATF2, NFATc1, MEF2): None of the 7 other ones (AP1 (c-Jun), Elk-1, p53, c-Myc, ATF2, NFATc1 and MEF2) were activated
U937 cells; 15 min and 24 h
  Number of genes affected at the two stimulation times: Five
U937 cells; 1000 U/ml
  Differential expression of genes BAX and BCLX: not found to be differentially expressed
U937 cells; 1000 U/ml, 15 min and 24 h, quantitative analysis, 260 genes on array
  Number of genes whose expression level varies significantly: 81 genes
U937 cells; 1000 U/ml, 24 h
  Expression level of gene FOS: returned to a basal level
U937 cells; 24 h, 1000 U/ml
  Number of genes exclusively regulated by this interferon: 62 genes
U937 cells; out of 81
  Number of genes specifically affected by a 15 min treatment: 4 genes
  Number of genes specifically modified after a 24 h treatment: 72 genes

## hydrogen peroxide [H2O2]
[1]; MCF7 cells, 200 μM
  Activation state of c-Jun, Elk-1 and STAT1: did not highlight any modification in the activation state
[1]; MCF7 cells, 200 μM, 3 h
  Activation of ATF2, c-Myc, MEF2 and NFATc1: suppressed
[1]; MCF7 cells, 200 μM, 3 h and 24 h
  Activation of transcription factor p53: activation of p53
[1]; MCF7 cells, 200 μM, 24 h
  Activation of ATF2, c-Myc, MEF2 and NFATc1: restored to a basal level
MCF7 cells; 200 μM
  Regulation of genes p53, bcl-x and thrombospondin-1: not shown experimentally to be regulated
  Number of genes whose expression level is modified: 16 genes
MCF7 cells; 200 μM, of 9 on the array
  Number of apoptotic pathway genes affected (BAG and BAX): 2 genes
MCF7 cells; 200 μM, vs untreated cells
  Expression ratio, gene BAG-1: 1.65
  Expression ratio, gene BAX: 1.86
  Expression ratio, gene CTSD: 1.65
  Expression ratio, gene FOXM1: 0.55
  Expression ratio, gene K-alpha-1: 0.63
  Expression ratio, gene MCM7: 0.57
  Expression ratio, gene MDM2: 1.73
  Expression ratio, gene MKi67: 0.56
  Expression ratio, gene MYBL2: 0.53
  Expression ratio, gene Muc1: 1.64
  Expression ratio, gene NIFU: 1.53
  Expression ratio, gene ODC: 0.61
  Expression ratio, gene PPP1CB: 0.62
  Expression ratio, gene STMN1: 0.54
  Expression ratio, gene TOB: 1.63
  Expression ratio, gene p21 (CDKN1A): 3.26
